Here are results for nine compounds from patent publication US11278549B2, “Method of treating obesity” (McMaster University, priority 2013, dated 2022).

One assay deals with T1, 5-HT2A (Mus musculus, UniProt P35363).
T1 construct: endogenous in cells; host or cells: immortalized murine brown adipocytes (differentiated)
In words: Fluo-4 Ca2+ signals in brown adipocytes. The format is cell-based. The note with it: for Ca2+ levels: brown adipocytes stained with Fluo-4, agonist treatment; for 5-HT induced Ca2+ transients: pre-treatment with antagonist.

In assay [1] the test system is HFD-fed C57Bl6 mice. In words: Daily LP533401 treatment of HFD-fed C57Bl6 mice (prevention of obesity). Type of assay: in vivo. The source says:
Animals. All experiments were approved by the McMaster University animal ethics committee and conducted under the Canadian guidelines for animal research. Tph1^−/− mice on C57BL/6 background were originally produced by gene mutation as described by Côté et al. (Proc Natl Acad Sci USA 100, 13525-13530 (2003)). Heterozygous (Tph1^+/−) mice were interbred to generate Tph1^−/− and Tph1^+/+ littermates. Starting at 8 weeks of age, male Tph1^−/− and Tph1^+/+ mice received either a chow (17% kcal fat; Diet 8640, Harlan Teklad, Madison, Wis.) or high-fat diet (HFD, 45% kcal fat, D12451, Research Diets; New Brunswick, N.J.) and water ad libitum for 12 weeks. For the initial chemical inhibitor studies, male C57BL/6 mice were purchased from Jackson's Laboratory at 6 weeks of age and immediately placed on the HFD described above. Starting at 8 weeks of age HFD-fed C57Bl6 mice received a daily intraperitoneal injection of the Tph1 inhibitor, LP533401 (25 mg/kg body weight, Dalton Pharma Services, Canada) dissolved in DMSO and diluted with water (5% DMSO final concentration) or equal volume of vehicle (5% DMSO in water). […] All mice were housed in SPF micro-isolator cages that were located in a room maintained at a constant temperature of 23° C. on a 12 h light/dark cycle with lights on at 0700.
(§1) Metabolic monitoring was performed in a Comprehensive Lab Animal Monitoring System (CLAMS, Columbus Instruments, OH, USA) as previously described (Sachithanandan, N., et al. Hepatology 52, 1632-1642 (2010); O'Neill, H. M., et al. Proc Natl Acad Sci 108, 16092-16097 (2011)). CL-316,243 challenge experiments were also performed using the CLAMS equipment, as described. All metabolic monitoring occurred in a room kept between 26 and 28° C. Insulin and glucose tolerance tests were performed after 16 weeks of the diet intervention in Tph1^−/− mice experiments, and after 6-10 weeks of HFD weeks in LP533401 injection experiments as previously described (Steinberg, G. R., et al. J Biol Chem 285, 37198-37209 (2010)). For serum insulin and cytokine measurements, fasting and fed blood samples were collected by retro-orbital bleed between weeks 16-18 using a non-heparinized capillary tube and insulin, adiponectin, leptin were measured as described (Watt, M. J., et al. Nature medicine 12, 541-548 (2006)). Serum cytokines (MCP-1, TNFα, and IL-6) were measured using a multiplexed bead-based immunoassay (BD Biosciences, San Jose, Calif., USA) following the manufacturer's instructions.
In vivo glucose uptake and body composition: ^18F-Fluorodeoxyglucose (FDG) was synthesized at McMaster University by the nucleophilic substitution method using an FDG synthesizing instrument (GE Healthcare, Milwaukee, Wis., USA) and a cyclotron (Siemans 20-30 gb). After an 8 h fast, mice were injected with insulin (0.5 U/kg) diluted in 0.9% physiological saline and 5 minutes later received an intravenous administration of FDG (10.8±1.2 MBq/g). After injection, the mice were maintained under conscious conditions and warmed using a heating pad. At 28 minutes post saline or insulin injection mice were anaesthetized with isoflorane and at 30 minutes small-animal positron emission tomography (PET, Philip Mosaic, Andover, Mass.) and micro-computed tomography (CT) (Gamma Medica-Ideas Xspect System, NorthRidge, Calif.) imaging were performed using an acquisition time of 15 min for PET, followed by CT for 5 minutes. Images were reconstructed using 3D-RAMLA algorithm, with no attenuation correction and no correction for partial-volume effects of the tomograph as previously described^31. Quantification was performed by Region-of-interest (ROI) analysis using Amide Research Workplace software and FDG-tissue uptake calculated using the mean value of standard uptake values (SUV) as described (Palanivel R, Diabetologia. 55(11):3083-93 (2012)). […]

In assay [2] the test system is HFD-fed C57Bl6 mice. In words: Metabolic cages and 18FDG-PET/CT of LP533401-treated HFD-fed mice. Type of assay: in vivo. As to the method: as §1
In vivo glucose uptake and body composition: ^18F-Fluorodeoxyglucose (FDG) was synthesized at McMaster University by the nucleophilic substitution method using an FDG synthesizing instrument (GE Healthcare, Milwaukee, Wis., USA) and a cyclotron (Siemans 20-30 gb). After an 8 h fast, mice were injected with insulin (0.5 U/kg) diluted in 0.9% physiological saline and 5 minutes later received an intravenous administration of FDG (10.8±1.2 MBq/g). After injection, the mice were maintained under conscious conditions and warmed using a heating pad. At 28 minutes post saline or insulin injection mice were anaesthetized with isoflorane and at 30 minutes small-animal positron emission tomography (PET, Philip Mosaic, Andover, Mass.) and micro-computed tomography (CT) (Gamma Medica-Ideas Xspect System, NorthRidge, Calif.) imaging were performed using an acquisition time of 15 min for PET, followed by CT for 5 minutes. Images were reconstructed using 3D-RAMLA algorithm, with no attenuation correction and no correction for partial-volume effects of the tomograph as previously described^31. Quantification was performed by Region-of-interest (ROI) analysis using Amide Research Workplace software and FDG-tissue uptake calculated using the mean value of standard uptake values (SUV) as described (Palanivel R, Diabetologia. 55(11):3083-93 (2012)). Analysis of total body fat composition were determined by using Amira software (Visage Imaging) and the mean value of voxels of segmented adipose were calculated and expressed relative to total body mass.
To examine the mechanisms contributing to weight loss in LP533401-treated mice, HFD-fed mice were placed in metabolic cages after 12 days of treatment before any change in body mass was evident in groups (Vehicle: 29.4±0.58 g vs. LP533401:28.9±0.63 g).

Assay [3] concerns HFD-fed Ucp1+/+ and Ucp1-/- mice. In words: LP533401 in HFD-fed Ucp1+/+ and Ucp1-/- mice at thermoneutrality. Type of assay: in vivo. Here is the method: Ucp1 heterozygous mice were acquired from Jackson Laboratories and bred to produce UCP1-null (Ucp1^−/−) and wild-type (Ucp1^+/+) littermates. In order to prevent thermal stress, mice in this colony were bred and housed in a room maintained at 30° C. All testing except for the CL-316,243 challenge occurred at this temperature.
as §1
In order to establish whether the clinical benefits of Tph1 inhibition (weight loss and improvements in insulin sensitivity) are derived from increased thermogenesis mediated by UCP1, daily injections of LP533401 were performed using UCP1-null (Ucp1^−/−) and wild-type littermates (Ucp1^+/+) fed a HFD and housed under thermoneutral conditions (30° C.). […] Thus, the clinical benefits of Tph1 inhibition require UCP1 mediated thermogenesis.

The next assay concerns UCP1. Briefly: Ucp1 promoter activity, Ucp1 mRNA and UCP1 protein in brown adipocytes. Type of assay: cell-based, mouse. Here is the method: Using RNA-Seq, cultured human brown and beige adipocytes were interrogated for 5-HT receptor mRNA expression. Immortalized murine brown adipocytes (BAs) were treated with or without the selective 5-HT reuptake inhibitor (SSRI), paroxetine (250 nM). Subsequent studies were conducted with and without 5-HT2A agonists (1 pM-10 uM TCB-2, 1 pM-10 uM AL-34662, and 1 pM-10 uM NBOH-2C-CN) and 5-HT2A antagonists (100 fM-100 pM MDL-100907, 100 pM-10 uM xylamidine tosylate, 1 nM ketanserin, 10 nM altanserin, 100 fM-100 pM EMD-281,014, and 100 pM-10 uM sarpogrelate hydrochloride).
BA progenitors were isolated and immortalized from WT and serotonin transporter (SERT; Gene: Slc6a4) KO mice. These cells were then differentiated for 7 days to obtain mature BAs. BAs were then treated with different doses of 5-HT for 4 hours. RNA was isolated and quantified using RT-qPCR with probes specific for Slc6a4, Ucp1 and PPIA.
BA progenitors were isolated from mice expressing a transgene where the luciferase gene is driven by the Ucp1 promoter (i.e. Ucp1-Luc2 mice; a.k.a. ThermoMouse; Jackson Laboratories). Upon 9 days of differentiation, these BAs were treated for 4 hours with different doses of 5-HT. Because in vitro there is not a continuous supply of 5-HT as there is in vivo, cells were treated with paroxetine to inhibit the uptake and consequent degradation of 5-HT, and to observe 5-HT receptor specific effects. These cells were then lysed, incubated with a luciferin assay cocktail, and the light generated quantified on a microplate reader.

Another assay relates to 5-HT receptor. Briefly: Isoproterenol-induced lipolysis (FFA release) in immortalized BAT cells. Type of assay: cell-based, mouse. The following applies: co-treatment with the antagonist (3 μM), n=2.
[4] abbreviates: HFD-fed C57Bl6 mice, Tph1 inhibitor 25 mg/kg daily i.p., values ± SEM, n = 7-8.

Molecules are shown by their SMILES. Counter-ions that a name gives are not always drawn.

T1 sequence (P35363 whole entry): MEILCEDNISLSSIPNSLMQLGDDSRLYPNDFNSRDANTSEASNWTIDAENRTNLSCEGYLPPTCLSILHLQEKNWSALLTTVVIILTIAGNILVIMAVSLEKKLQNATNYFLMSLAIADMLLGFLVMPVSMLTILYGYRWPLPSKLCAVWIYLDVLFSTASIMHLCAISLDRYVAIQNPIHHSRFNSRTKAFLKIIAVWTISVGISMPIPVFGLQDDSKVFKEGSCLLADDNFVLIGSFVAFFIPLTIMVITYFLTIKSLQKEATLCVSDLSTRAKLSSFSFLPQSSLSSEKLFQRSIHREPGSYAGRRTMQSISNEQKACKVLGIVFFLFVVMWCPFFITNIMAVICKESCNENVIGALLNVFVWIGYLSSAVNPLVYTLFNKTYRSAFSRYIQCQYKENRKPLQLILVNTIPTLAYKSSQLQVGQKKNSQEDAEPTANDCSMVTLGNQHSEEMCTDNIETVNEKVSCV
Method for 5-HT receptor: Briefly, confluent cells were placed in induction media (0.5 mM IBMX; 0.25 mM indomethacin; 2 μg/ml dexamethasone; 1 nM T3, 20 nM insulin) for two days and subsequently maintained on differentiation media (1 nM T3, 20 nM insulin). All experiments were performed on cultures 6-8 days post-induction. Unless otherwise indicated, cells were rinsed with PBS and media was changed to HEPES-buffered Krebs Ringer buffer (HKRB)+1% BSA. Where indicated, BAs were treated with serotonin for 30 min (100 μM; Sigma) followed by isoproterenol (1 nM, Sigma) for 4 h. The serotonin receptor antagonist, methysergide (3 μM) was used 45 min prior treatment with serotonin as above.
From the text for 5-HT2A: Immortalized BA progenitor cells obtained from 5-HT2A KO (B6; 129-5-HT2Atm1a/Nju from Nanjing Biomedical Research Institute of Nanjing University) mice were differentiated for 9 days to produce mature BAs. Cells were then stained with fluo-4 and treated with different concentrations of 5-HT to obtain a dose response curve. Values from BAs expressing 5-HT2A used for other experiments were plotted as a WT comparison.

Regarding `C[C@H](N)Cn1ncc2ccc(O)cc21` [AL-34662], the “Ca2+ levels” value at 5-HT2A was “increased”.

For the compound `N#Cc1c[nH]c2c(C(=O)N3CCN(CCc4ccc(F)cc4)CC3)cccc12` [EMD-281,014, pruvanserin], the “5-HT induced Ca2+ transients” value on 5-HT2A is reported as “attenuated”.

For `Nc1nc(OC(c2ccc(-c3cccc(F)c3)cc2)C(F)(F)F)cc(-c2ccc(C[C@H](N)C(=O)O)cc2)n1` (stereo partly drawn) [LP533401, (2S)-2-amino-3-(4-(2-amino-6-(2,2,2-trifluoro-1-(3′-fluoro-[1,1′-biphenyl]-4-yl)ethoxy)pyrimidin-4-yl)phenyl)propanoic acid], in the assay with HFD-fed C57Bl6 mice [1] (25 mg/kg i.p., versus vehicle), the “accumulation of body fat” value is reported as “lower accumulation”, the circulating serotonin levels entry is “reduced”, the glucose homeostasis entry was “improvements” and the insulin sensitivity entry was “increased”. Further, the liver size entry with HFD-fed C57Bl6 mice [1] (25 mg/kg i.p., versus vehicle) is “reductions”. Also, the weight gain result in the assay with HFD-fed C57Bl6 mice [1] (25 mg/kg i.p., versus vehicle (1-2 grams per week)) is reported as “suppressed”. In addition, in the assay with HFD-fed C57Bl6 mice [1] (setting [4]), the “Tissue weight, Brown Adipose Tissue” value was 153 ± 8.4 mg; the “Tissue weight, Epididymal Fat Pad” value amounted to 1157 ± 121 mg; the “Tissue weight, Inguinal Fat Pad” value worked out at 117 ± 16 mg; the “Tissue weight, Retroperitoneal Fat Pad” value is given as 265 ± 29.9 mg. Also, in the assay with HFD-fed C57Bl6 mice [2] (18FDG-PET/CT), the “FDG uptake in BAT” value was “increased”. Besides, the “FDG uptake into eWAT” value with HFD-fed C57Bl6 mice [2] (PET, HFD-fed C57Bl6 mice) is “increased”. The same compound had a body mass in the assay with HFD-fed C57Bl6 mice [2] (after 12 days of treatment, before any change in body mass) of 28.9 ± 0.63 g. For the same compound, the oxygen consumption entry with HFD-fed C57Bl6 mice [2] (dark and light cycles, after 12 days of treatment) is listed as “increased”. Also, the “browning of eWAT” value in the assay with HFD-fed C57Bl6 mice [2] (macroscopically evident, with marked UCP1 immunostaining) is “Increased”. In addition, the food intake with HFD-fed C57Bl6 mice [2] (metabolic cages, P>0.05 vs vehicle, n=8) amounted to 13.7 ± 0.45 g. Besides, the activity levels result with HFD-fed C57Bl6 mice [2] (metabolic cages, after 12 days of treatment) is “without altering”. Also, the “expression of UCP1 in BAT” value in the assay on HFD-fed C57Bl6 mice [2] (mouse, in vivo) was “enhanced”. Further, the weight gain result in assay [3] (Ucp1+/+ mice, HFD, 30° C.) is “attenuated weight gain”. Also, in assay [3] (Ucp1+/+ versus Ucp1-/- mice), the “improvements in glucose tolerance” value is “entirely dependent on the expression of UCP1”. In addition, in assay [3] (challenged with CL-316,243, only Ucp1+/+ mice), the “oxygen uptake and thermogenesis” value is “increase”.

Regarding `COc1cccc([C@H](O)C2CCN(CCc3ccc(F)cc3)CC2)c1OC` [MDL-100907, volinanserin], the “5-HT induced Ca2+ transients” value at 5-HT2A is listed as “attenuated”. Further, in the assay with UCP1 (antagonist plus 5-HT), the “5-HT induced decrease in UCP1 protein levels” value is given as “dose-dependently attenuated”.

Consider `COc1cc(CCNCc2ccccc2O)c(OC)cc1C#N` [NBOH-2C-CN], for which the “Ca2+ levels” value on 5-HT2A is recorded as “increased”. In addition, the “Ucp1 mRNA” value in the assay on UCP1 (brown adipocytes) is “inhibited”. Moreover, in the assay with UCP1 (brown adipocytes, chronic treatment for NBOH-2C-CN), the UCP1 protein levels entry was “decreased”.

`COc1cccc(CCc2ccccc2OCC(CN(C)C)OC(=O)CCC(=O)O)c1` (centres unmarked) [Sarpogrelate hydrochloride]: at 5-HT2A, the “5-HT induced Ca2+ transients” value is “attenuated”.

With `COc1cc(Br)c(OC)c2c1[C@H](CN)C2` [TCB-2], the “Ca2+ levels” value at 5-HT2A is on record as “increased”.

Consider `CC[C@@H](CO)NC(=O)[C@@H]1C=C2c3cccc4c3c(cn4C)C[C@H]2N(C)C1` [methysergide], for which the “effect of serotonin on isoproterenol-induced lipolysis” value in the assay on 5-HT receptor is given as “blocked”.

Consider `Fc1ccc([C@@H]2CCNC[C@H]2COc2ccc3c(c2)OCO3)cc1` [paroxetine], for which, in the assay with UCP1 (serotonin transporter inhibited with the SSRI), the “sensitivity of brown adipocytes to inhibition by 5-HT” value is reported as “greater sensitivity”.
